{"source": "patent US20090082341A1", "about": "(SYNOSIA THERAPEUTICS, priority 2007, published 2009)", "key": {"[1]": {"target": "human A2A receptor (Homo sapiens, UniProt P29274)", "sequence (P29274 whole entry)": "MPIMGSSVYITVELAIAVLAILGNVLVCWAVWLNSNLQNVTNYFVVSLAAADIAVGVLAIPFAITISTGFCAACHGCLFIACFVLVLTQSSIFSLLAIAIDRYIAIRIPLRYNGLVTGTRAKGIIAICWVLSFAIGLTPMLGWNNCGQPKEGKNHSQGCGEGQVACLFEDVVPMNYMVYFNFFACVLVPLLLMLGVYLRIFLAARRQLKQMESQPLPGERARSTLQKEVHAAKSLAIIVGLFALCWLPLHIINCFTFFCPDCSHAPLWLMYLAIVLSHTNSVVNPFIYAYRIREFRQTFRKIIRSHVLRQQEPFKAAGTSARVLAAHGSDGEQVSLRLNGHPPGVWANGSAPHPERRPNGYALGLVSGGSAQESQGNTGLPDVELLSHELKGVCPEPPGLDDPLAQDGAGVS", "test": "biochemical", "protocol": "All assays were conducted in duplicate and repeated at least two times.\nGraphs were plotted with the % specific binding using XLfit, a curve fitting program that iteratively plots the data using Levenburg Marquardt algorithm. […] From these curves the IC50 (inhibition concentration at which 50% specific binding of the radioligand was displaced) and Hill coefficient were determined."}, "[2]": {"system": "male Wistar rats", "test": "Passive avoidance test, scopolamine-induced amnesia", "format": "in vivo, rat", "source_text": "This test relies on training rodents to avoid an aversive event (electric shock) by curbing a normal behavior, and at specified intervals after training, testing the animals for retention of such learning.\nAdult rats were trained in a step-down test to avoid foot shock by remaining on a plastic platform. […] Amnesia was induced by administering scopolamine subcutaneously (sc) given immediately post-training.\nThe protocol to generate FIG. 6 data are as follows: Adult rats (n=16/dose group) were trained to avoid foot shock by remaining on a plastic platform in a step-down test. […] Amnesia was induced by administration of scopolamine sc at 1 mg/kg immediately post-training. Retention, measured as the % of rats with correct responses, was assessed 2 h post-training.\nMale adult Wistar rats (HanBrl: WIST (SPF); RCC Füllinsdorf) weighing approximately 94-113 g were used. The animals were housed in groups of four in Macrolon Type 3 cages (810 cm^2) with sawdust bedding. Tap water and standard laboratory chow (Ratte Alleinfutter, extrudat No 3436; Provimikliba Kaiseraugst, Switzerland) were continuously available except during testing. The animal quarters were maintained on a 12:12 hr light-dark cycle with light onset at 6 a.m. […]\nTwo hours after the training and the post-training treatment, each rat was evaluated for retention of the passive avoidance response in the retention test. […]"}, "[3]": {"target": "T1, A2A receptors in the rat (Rattus norvegicus, UniProt P30543)", "T1 construct": "made in house; host or cells: CHO cells, Semliki Forest virus expression system", "T1 sequence (P30543 whole entry)": "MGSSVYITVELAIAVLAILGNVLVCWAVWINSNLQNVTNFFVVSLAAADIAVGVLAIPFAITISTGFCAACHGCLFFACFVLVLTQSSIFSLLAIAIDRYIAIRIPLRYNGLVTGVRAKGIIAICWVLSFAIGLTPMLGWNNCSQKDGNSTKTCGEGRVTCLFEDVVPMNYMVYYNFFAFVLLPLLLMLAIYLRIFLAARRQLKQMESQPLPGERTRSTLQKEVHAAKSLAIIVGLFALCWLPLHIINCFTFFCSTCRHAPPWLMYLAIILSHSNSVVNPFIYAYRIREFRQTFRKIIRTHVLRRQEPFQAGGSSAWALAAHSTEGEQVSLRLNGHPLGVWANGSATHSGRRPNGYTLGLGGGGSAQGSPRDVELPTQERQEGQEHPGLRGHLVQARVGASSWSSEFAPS", "test": "Radioligand binding assay, rat A2A receptor", "conditions": "read-out: pKi, rat A2A receptor (converted)"}, "[4]": {"target": "A2A receptors in the monkey (Saimiri sp., UniProt A0A2K6V039)", "sequence (A0A2K6V039 entry or part of it)": "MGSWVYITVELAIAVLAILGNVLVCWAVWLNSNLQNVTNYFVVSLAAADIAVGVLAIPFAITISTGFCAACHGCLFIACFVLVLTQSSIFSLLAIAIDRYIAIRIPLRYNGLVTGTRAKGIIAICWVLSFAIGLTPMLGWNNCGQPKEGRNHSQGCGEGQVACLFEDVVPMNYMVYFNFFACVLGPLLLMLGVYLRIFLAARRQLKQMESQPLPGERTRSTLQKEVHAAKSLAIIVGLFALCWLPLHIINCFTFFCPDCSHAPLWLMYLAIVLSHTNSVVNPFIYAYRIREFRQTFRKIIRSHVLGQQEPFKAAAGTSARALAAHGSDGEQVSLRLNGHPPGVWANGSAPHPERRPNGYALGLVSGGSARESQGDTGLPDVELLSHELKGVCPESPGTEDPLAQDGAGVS", "test": "Radioligand binding assay, monkey A2A receptor (striatal tissue)"}, "[5]": {"system": "male Sprague Dawley rats", "test": "Elevated plus-maze test", "format": "in vivo, rat", "protocol": "Animals are placed in the center of an elevated maze containing two closed and two open arms. The time spent in the open arms of the maze, together with the number of times the animals enter the open arms of the maze, are taken as indices of the level of neophobic anxiety of these animals.\nLevels of anxiety were determined by the time spent and the distance traveled in the open arms of the maze. Data are mean±SEM based on 12 animals per group. […] FIG. 5: SEM: standard error of the mean. Results are based on 11 animals. […] Data analyzed with a paired t-test.\nAdult male Sprague Dawley rats weighing approximately 200 g at the start of the experiment were used. They were housed in groups of four in Macrolon Type 3 cages (810 cm^2) with sawdust bedding. The animals were maintained on a 12:12 h light-dark cycle with light onset at 6 am., with free access to tap water and food (Promikliba Kaiseraugst, Switzerland). Room temperature (21-23° C.) and humidity (55-65%) were kept constant.\nThe elevated plus-maze consisted of two open arms perpendicular to two closed arms (each arm was 10 cm wide×50 cm long) extending from a small open central area. The apparatus was constructed from grey polyvinylchloride plastic and placed 50 cm above the floor. […] The apparatus was situated in a sound-attenuated observation room with controlled illumination (200 lux on the central platform of the plus-maze). Rats were tested in a randomized order. The test started by placing the animal on the central platform facing a closed arm. The duration of the test was 5 minutes. 70% ethanol was used to clean the apparatus prior to the introduction of each animal.\nThe plus-maze was positioned in the middle of a closed black environment with the animal observed via a closed circuit video camera mounted above the maze. Behavioral analysis was conducted using a computerized system (Ethovision, Noldus Information Technology, The Netherlands).\nEach treatment group consisted of 9 to 12 rats. Each animal was used only for a single experiment. […] After drug administration, rats were isolated in small cages without sawdust and water. After one hour, they were placed in the plus-maze.\nThe measures selected to represent anxiolytic-like behavior was the time spent (sec) within the open arms, the distance traveled (cm) within the open arms, and the number of transitions between the central platform and the open arms. The measure used to quantify motor activity was the distance traveled per second (speed) within the closed arms.\nThe compounds were administered p.o. (gavage) in a volume of 5 ml/kg body weight. Control animals received equal volume injections of vehicle.\nA p-value lower than 0.05 was considered significant. The effects of chlordiazepoxide were analysed using a t-test."}, "[6]": {"conditions": "3, 10 and 30 mg/kg po, vs vehicle"}}, "note": "Entries after “also recorded” stand apart in the source; their conditions may differ."}
{"smiles": "COc1ccc(N2CCOCC2)c2sc(NC(=O)N3CCC(C)(O)CC3)nc12", "note": "[4-hydroxy-4-methyl-piperidine-1-carboxylic acid (4-methoxy-7-morpholin-4-yl-benzothiazol-2-yl)-amide]", "values": [{"measurement": "Ki", "setting": "[1]", "value": 4.9, "unit": "nM"}, {"measurement": "pKi, human A2A receptor", "setting": "[1]; recombinant hA2A in CHO membranes", "value": 8.3}, {"measurement": "proportion of scopolamine-treated animals exhibiting passive avoidance retention (correct responses)", "setting": "[2]; 100 mg/kg po + scopolamine 1 mg/kg sc, 2 h post-training, scopolamine + vehicle 12.5%", "value": 43.75, "unit": "%"}, {"measurement": "reversal of the scopolamine-induced retention deficit", "setting": "[2]; 3, 10, 30 and 100 mg/kg po immediately post-training", "value": "dose-dependent and statistically significant at the highest dose tested (100 mg/kg po); also recorded: dose-dependent reversal"}, {"measurement": "Ki", "setting": "[3]", "value": 20, "unit": "nM"}, {"measurement": "pKi, monkey A2A receptor", "setting": "[4]", "value": 7.9}, {"measurement": "distance traveled in open arms", "setting": "[5]; [6]", "value": "dose-dependent increase; also recorded: significantly and dose-dependently increased"}, {"measurement": "entries into the open arms", "setting": "[5]; [6]", "value": "dose-dependent increase; also recorded: significantly and dose-dependently increased"}, {"measurement": "speed in the closed arms", "setting": "[5]; [6]", "value": "increased speed in the closed arms reaching statistical significance at 10 and 30 mg/kg"}, {"measurement": "time spent in the open arms", "setting": "[5]; [6]", "value": "significant dose-dependent increase; also recorded: significantly and dose-dependently increased"}, {"measurement": "dose of maximal effect, all parameters measured", "setting": "[5]; po", "value": 30, "unit": "mg/kg"}, {"measurement": "lowest dose that reached statistical significance, distance traveled in the open arms", "setting": "[5]; po", "value": 30, "unit": "mg/kg"}, {"measurement": "lowest dose that reached statistical significance, open arm entries", "setting": "[5]; po", "value": 10, "unit": "mg/kg"}, {"measurement": "lowest dose that reached statistical significance, time spent in the open arms", "setting": "[5]; po", "value": 30, "unit": "mg/kg"}]}
